{"source": "ChEMBL document CHEMBL1770050", "about": "“Effect of carbohydrate amino group modifications on the cytotoxicity of glycosylated 2-phenyl-benzo[b]thiophenes and 2-phenyl-benzo[b]furans” (Bioorg Med Chem Lett, 2011)", "key": {"MCF7 [1]": {"system": "MCF7", "experiment": "Cytotoxicity against human MCF7 cells after 3 days by MTS assay", "assay_type": "functional, cell-based", "conditions": "MCF7, 72 h"}, "HT-29 [2]": {"system": "HT-29", "experiment": "Cytotoxicity against human HT-29 cells after 3 days by MTS assay", "assay_type": "functional, cell-based", "conditions": "HT-29, 72 h"}, "HepG2 [3]": {"system": "HepG2", "experiment": "Cytotoxicity against human HepG2 cells after 3 days by MTS assay", "assay_type": "functional, cell-based", "conditions": "HepG2, 72 h"}, "Nucleic Acid": {"system": "Nucleic Acid", "experiment": "Binding affinity to Sheared herring sperm DNA assessed as remaining displaced EtBr by fluorescent intercalator displacement assay", "assay_type": "nucleic-acid assay", "parameters": "concentration or dose not given beside the values"}, "HepG2 [4]": {"system": "HepG2", "experiment": "Cytotoxicity against human HepG2 cells assessed as cell viability at 25 uM after 3 days by MTS assay", "assay_type": "functional", "conditions": "HepG2, 72 h, read-out: Activity"}, "MCF7 [5]": {"system": "MCF7", "experiment": "Cytotoxicity against human MCF7 cells assessed as cell viability at 25 uM after 3 days by MTS assay", "assay_type": "functional", "conditions": "MCF7, 72 h, read-out: Activity"}, "HT-29 [6]": {"system": "HT-29", "experiment": "Cytotoxicity against human HT-29 cells assessed as cell viability at 25 uM after 3 days by MTS assay", "assay_type": "functional", "conditions": "HT-29, 72 h, read-out: Activity"}, "MCF7 [7]": {"system": "MCF7", "experiment": "Cytotoxicity against human MCF7 cells at 25 µM after 3 days by MTS assay", "conditions": "MCF7, 72 h"}}}
{"compound": "CCCCCCN[C@H]1CC[C@H](OCC#Cc2c(-c3ccccc3)oc3ccccc23)O[C@H]1C", "values": [{"measurement": "IC50", "setting": "MCF7 [1]", "result": 14.8, "unit": "µM"}, {"measurement": "IC50", "setting": "HT-29 [2]", "result": 6, "unit": "µM"}, {"measurement": "IC50", "setting": "HepG2 [3]", "result": 14.4, "unit": "µM"}]}
{"compound": "CCN(CC)[C@H]1CC[C@H](OCC#Cc2c(-c3ccccc3)sc3ccccc23)O[C@H]1C", "values": [{"measurement": "IC50", "setting": "MCF7 [1]", "result": 12, "unit": "µM"}, {"measurement": "IC50", "setting": "HT-29 [2]", "result": 3.9, "unit": "µM"}, {"measurement": "IC50", "setting": "HepG2 [3]", "result": 11.7, "unit": "µM"}]}
{"compound": "CC(=O)N[C@H]1CC[C@H](OCC#Cc2c(-c3ccccc3)oc3ccccc23)O[C@H]1C", "values": [{"measurement": "IC50", "setting": "MCF7 [1]", "result": 23.4, "unit": "µM"}, {"measurement": "IC50", "setting": "HT-29 [2]", "result": 13.3, "unit": "µM"}, {"measurement": "IC50", "setting": "HepG2 [3]", "result": 18.2, "unit": "µM"}, {"measurement": "Activity", "setting": "Nucleic Acid", "result": 98.6, "unit": "%"}]}
{"compound": "CCCCN(CCCC)[C@H]1CC[C@H](OCC#Cc2c(-c3ccccc3)sc3ccccc23)O[C@H]1C", "values": [{"measurement": "IC50", "setting": "MCF7 [1]", "result": "> 25", "unit": "µM"}, {"measurement": "IC50", "setting": "HT-29 [2]", "result": "> 25", "unit": "µM"}, {"measurement": "IC50", "setting": "HepG2 [3]", "result": "> 25", "unit": "µM"}]}
{"compound": "C[C@H](N)C(=O)N[C@H]1CC[C@H](OCC#Cc2c(-c3ccccc3)oc3ccccc23)O[C@H]1C", "values": [{"measurement": "IC50", "setting": "MCF7 [1]", "result": 8, "unit": "µM"}, {"measurement": "IC50", "setting": "HT-29 [2]", "result": 6.8, "unit": "µM"}, {"measurement": "IC50", "setting": "HepG2 [3]", "result": 4.1, "unit": "µM"}, {"measurement": "Activity", "setting": "Nucleic Acid", "result": 52.9, "unit": "%"}]}
{"compound": "CCCCN[C@H]1CC[C@H](OCC#Cc2c(-c3ccccc3)oc3ccccc23)O[C@H]1C", "values": [{"measurement": "IC50", "setting": "MCF7 [1]", "result": 20.8, "unit": "µM"}, {"measurement": "IC50", "setting": "HT-29 [2]", "result": 9.8, "unit": "µM"}, {"measurement": "IC50", "setting": "HepG2 [3]", "result": 19, "unit": "µM"}]}
{"compound": "C[C@@H]1O[C@@H](OCC#Cc2c(-c3ccccc3)oc3ccccc23)CC[C@@H]1NCc1ccccc1", "values": [{"measurement": "IC50", "setting": "MCF7 [1]", "result": "> 25", "unit": "µM"}, {"measurement": "viability at 25 µM", "setting": "HepG2 [4]", "result": 87, "unit": "%"}, {"measurement": "IC50", "setting": "HT-29 [2]", "result": 17.9, "unit": "µM"}, {"measurement": "viability at 25 µM", "setting": "MCF7 [5]", "result": 72, "unit": "%"}, {"measurement": "IC50", "setting": "HepG2 [3]", "result": "> 25", "unit": "µM"}, {"measurement": "viability at 25 µM", "setting": "HT-29 [6]", "result": 31, "unit": "%"}]}
{"compound": "CN[C@H]1CC[C@H](OCC#Cc2c(-c3ccccc3)sc3ccccc23)O[C@H]1C", "values": [{"measurement": "IC50", "setting": "MCF7 [1]", "result": 7.1, "unit": "µM"}, {"measurement": "IC50", "setting": "HT-29 [2]", "result": 5.4, "unit": "µM"}, {"measurement": "IC50", "setting": "HepG2 [3]", "result": 8.8, "unit": "µM"}]}
{"compound": "C[C@@H]1O[C@@H](OCC#Cc2c(-c3ccccc3)oc3ccccc23)CC[C@@H]1NCc1ccco1", "values": [{"measurement": "IC50", "setting": "MCF7 [1]", "result": "> 25", "unit": "µM"}, {"measurement": "viability at 25 µM", "setting": "HepG2 [4]", "result": 70, "unit": "%"}, {"measurement": "IC50", "setting": "HT-29 [2]", "result": 15.2, "unit": "µM"}, {"measurement": "viability at 25 µM", "setting": "MCF7 [5]", "result": 77, "unit": "%"}, {"measurement": "IC50", "setting": "HepG2 [3]", "result": "> 25", "unit": "µM"}, {"measurement": "viability at 25 µM", "setting": "HT-29 [6]", "result": 24, "unit": "%"}]}
{"compound": "C[C@@H]1O[C@@H](OCC#Cc2c(-c3ccccc3)oc3ccccc23)CC[C@@H]1NCc1ccc([N+](=O)[O-])cc1", "values": [{"measurement": "IC50", "setting": "MCF7 [1]", "result": "> 25", "unit": "µM"}, {"measurement": "viability at 25 µM", "setting": "HepG2 [4]", "result": 94, "unit": "%"}, {"measurement": "IC50", "setting": "HT-29 [2]", "result": "> 25", "unit": "µM"}, {"measurement": "viability at 25 µM", "setting": "MCF7 [5]", "result": 86, "unit": "%"}, {"measurement": "IC50", "setting": "HepG2 [3]", "result": "> 25", "unit": "µM"}, {"measurement": "viability at 25 µM", "setting": "HT-29 [6]", "result": 59, "unit": "%"}]}
{"compound": "Cc1ccc(CN[C@H]2CC[C@H](OCC#Cc3c(-c4ccccc4)oc4ccccc34)O[C@H]2C)cc1", "values": [{"measurement": "IC50", "setting": "MCF7 [1]", "result": "> 25", "unit": "µM"}, {"measurement": "viability at 25 µM", "setting": "HepG2 [4]", "result": 65, "unit": "%"}, {"measurement": "IC50", "setting": "HT-29 [2]", "result": 11.9, "unit": "µM"}, {"measurement": "viability at 25 µM", "setting": "MCF7 [5]", "result": 51, "unit": "%"}, {"measurement": "IC50", "setting": "HepG2 [3]", "result": "> 25", "unit": "µM"}, {"measurement": "viability at 25 µM", "setting": "HT-29 [6]", "result": 29, "unit": "%"}]}
{"compound": "CC(C)N[C@H]1CC[C@H](OCC#Cc2c(-c3ccccc3)oc3ccccc23)O[C@H]1C", "values": [{"measurement": "IC50", "setting": "MCF7 [1]", "result": 12.6, "unit": "µM"}, {"measurement": "IC50", "setting": "HT-29 [2]", "result": 5.8, "unit": "µM"}, {"measurement": "IC50", "setting": "HepG2 [3]", "result": 13, "unit": "µM"}, {"measurement": "Activity", "setting": "Nucleic Acid", "result": 79, "unit": "%"}]}
{"compound": "COc1ccc(CN[C@H]2CC[C@H](OCC#Cc3c(-c4ccccc4)sc4ccccc34)O[C@H]2C)cc1", "values": [{"measurement": "IC50", "setting": "MCF7 [1]", "result": "> 25", "unit": "µM"}, {"measurement": "IC50", "setting": "HT-29 [2]", "result": 6.2, "unit": "µM"}, {"measurement": "IC50", "setting": "HepG2 [3]", "result": "> 25", "unit": "µM"}]}
{"compound": "C[C@@H]1O[C@@H](OCC#Cc2c(-c3ccccc3)oc3ccccc23)CC[C@@H]1NCc1ccc(O)cc1", "values": [{"measurement": "IC50", "setting": "MCF7 [1]", "result": 10.9, "unit": "µM"}, {"measurement": "viability at 25 µM", "setting": "HepG2 [4]", "result": "< 1", "unit": "%"}, {"measurement": "IC50", "setting": "HT-29 [2]", "result": 5.8, "unit": "µM"}, {"measurement": "viability at 25 µM", "setting": "MCF7 [5]", "result": 2, "unit": "%"}, {"measurement": "IC50", "setting": "HepG2 [3]", "result": 13.4, "unit": "µM"}, {"measurement": "viability at 25 µM", "setting": "HT-29 [6]", "result": "< 1", "unit": "%"}]}
{"compound": "C[C@@H]1O[C@@H](OCC#Cc2c(-c3ccccc3)oc3ccccc23)CC[C@@H]1NCc1ccccn1", "values": [{"measurement": "IC50", "setting": "MCF7 [1]", "result": 14.3, "unit": "µM"}, {"measurement": "viability at 25 µM", "setting": "HepG2 [4]", "result": "< 1", "unit": "%"}, {"measurement": "IC50", "setting": "HT-29 [2]", "result": 10.8, "unit": "µM"}, {"measurement": "viability at 25 µM", "setting": "MCF7 [5]", "result": 11, "unit": "%"}, {"measurement": "IC50", "setting": "HepG2 [3]", "result": 16.3, "unit": "µM"}, {"measurement": "viability at 25 µM", "setting": "HT-29 [6]", "result": "< 1", "unit": "%"}]}
{"compound": "COc1ccc(CN[C@H]2CC[C@H](OCC#Cc3c(-c4ccccc4)oc4ccccc34)O[C@H]2C)cc1", "values": [{"measurement": "viability at 25 µM", "setting": "HepG2 [4]", "result": 12, "unit": "%"}, {"measurement": "IC50", "setting": "HT-29 [2]", "result": 7.9, "unit": "µM"}, {"measurement": "viability at 25 µM", "setting": "MCF7 [5]", "result": 31, "unit": "%"}, {"measurement": "IC50", "setting": "HepG2 [3]", "result": 13.1, "unit": "µM"}, {"measurement": "cell viability at 25 µM", "setting": "MCF7 [7]", "result": 31, "unit": "%"}, {"measurement": "viability at 25 µM", "setting": "HT-29 [6]", "result": 8, "unit": "%"}]}
{"compound": "CCN[C@H]1CC[C@H](OCC#Cc2c(-c3ccccc3)sc3ccccc23)O[C@H]1C", "values": [{"measurement": "IC50", "setting": "MCF7 [1]", "result": 5.9, "unit": "µM"}, {"measurement": "IC50", "setting": "HT-29 [2]", "result": 3.4, "unit": "µM"}, {"measurement": "IC50", "setting": "HepG2 [3]", "result": 6.6, "unit": "µM"}]}
